Test results from PMC10375784, “Synthesis of phthalazine-based derivatives as selective anti-breast cancer agents through EGFR-mediated apoptosis: in vitro and in silico studies” (BMC Chemistry, 2023).
Where two headings read alike, the source gives them in different places.

Columns and labels:
MCF-7 cells = assay: MTT cytotoxicity assay, MCF-7; format: cell-based; conditions: Homo sapiens, MCF7, 48 h, three independent trials, read-out: IC50 (μM) ± SD MCF-7
Method: (§1) MCF-7, HepG2 cancer cells and WISH normal cells were obtained from the National Cancer Institute in Cairo, Egypt, they were cultured in complete media of RPMI and DMEM, respectively at 5% carbon dioxide and 37 °C following standard tissue culture work. The cells were grown in “10% fetal bovine serum (FBS) and 1% penicillin–streptomycin” in 96-multiwell plate. All the synthesized compounds were screened for their cytotoxicity using 20 µL of MTT solution (Promega, USA) for 48 hours using untreated and treated cells with concentrations of (0.01, 0.1, 1, 10, and 100 µM) for 48 h. The plate was cultured for 3 h. Percentage of cell viability was calculated following this equation: 100-(ASample/AControl)X100 . An ELISA microplate reader was used to measure the absorbance at 690 nm to calculate the viability versus concentration, and the IC50 value using GraphPad prism software.

MDA-MB-231 cells [1] = assay: MTT cytotoxicity assay, MDA-MB-231; format: cell-based
[2] = MTT cytotoxicity assay, normal breast cells MCF-10A; format: cell-based; conditions: human; MCF-10A normal breast cells, highest concentration; read-out: percentage of cell viability at the highest concentration
MCF-10A cells = assay: as above; format: cell-based; conditions: Homo sapiens, MCF-10A; MTT, 48 h, normal breast cells; read-out: IC50 (μM) ± SD MCF-10A
EGFR = target: T1, EGFR (Homo sapiens, UniProt P00533); assay: EGFR enzyme inhibition (BPS Bioscience kit, ELISA); format: biochemical; conditions: three independent replicates; for IC50: five concentrations, read-out: EGFR IC50 [nM] ± SD
T1 construct: purchased BPS Bioscience Corporation 40321
Method: The luminescence was measured with a microplate reader at 450 nm by ELISA Reader (PerkinElmer). Inhibition percentage was calculated following this equation: 100-[Acontrol/Atreated-Control)] , IC50 was determined using GraphPad prism7 using inhibition curves at five different concentrations of each compound.

[3] = tested on: breast MCF-7 and MDA-MB-231 cancer cell lines; assay: SAR ranking of cytotoxicity (from Table 1); format: cell-based; conditions: Fig. 4, SAR summary
MDA-MB-231 cells [4] = assay: Flow cytometry Annexin V/PI apoptosis/necrosis assessment; format: cell-based; conditions: MDA-MB-231, treated at IC50 0.57 μM, 48 h
Method: MDA-MB-231 cells were incubated overnight in 6-well culture plates (3–5 × 10^5 cells/well) and then treated with the IC50 values for 48 h with compound 12d. After that, the cells were incubated in a 100 µL solution of Annexin binding buffer "25 mM CaCl2, 1.4 M NaCl, and 0.1 M Hepes/NaOH, pH 7.4" in the dark for 30 min with "Annexin V-FITC solution (1:100) and propidium iodide (PI) at a concentration equivalent to 10 µg/mL." The labeled cells were then extracted using the Cytoflex FACS machine. CytExpert software was used to analyze the data.

[5] = tested on: breast MCF-7 and MDA-MB-231 cancer cell lines; assay: SAR ranking of cytotoxicity (from Table 1); conditions: based on Table 1; cell line not stated, order follows MCF-7 values
Method: as §1

VEGFR‐2 = conditions: cited from earlier work
[6] = Homo sapiens, MDA-MB-231, MTT, 48 h, three independent trials, read-out: IC50 (μM) ± SD MDA-MB-231
[7] = Fig. 3, MTT, 100 µM to 0.01 µM, 48 h, cell line not given, they match MDA-MB-231
[8] = Homo sapiens, Fig. 3, MTT, 100 µM to 0.01 µM, 48 h, cell line not given, they match MDA-MB-231, read-out: IC50 (Fig. 3 curve fit)

T1 sequence (P00533 25-1210): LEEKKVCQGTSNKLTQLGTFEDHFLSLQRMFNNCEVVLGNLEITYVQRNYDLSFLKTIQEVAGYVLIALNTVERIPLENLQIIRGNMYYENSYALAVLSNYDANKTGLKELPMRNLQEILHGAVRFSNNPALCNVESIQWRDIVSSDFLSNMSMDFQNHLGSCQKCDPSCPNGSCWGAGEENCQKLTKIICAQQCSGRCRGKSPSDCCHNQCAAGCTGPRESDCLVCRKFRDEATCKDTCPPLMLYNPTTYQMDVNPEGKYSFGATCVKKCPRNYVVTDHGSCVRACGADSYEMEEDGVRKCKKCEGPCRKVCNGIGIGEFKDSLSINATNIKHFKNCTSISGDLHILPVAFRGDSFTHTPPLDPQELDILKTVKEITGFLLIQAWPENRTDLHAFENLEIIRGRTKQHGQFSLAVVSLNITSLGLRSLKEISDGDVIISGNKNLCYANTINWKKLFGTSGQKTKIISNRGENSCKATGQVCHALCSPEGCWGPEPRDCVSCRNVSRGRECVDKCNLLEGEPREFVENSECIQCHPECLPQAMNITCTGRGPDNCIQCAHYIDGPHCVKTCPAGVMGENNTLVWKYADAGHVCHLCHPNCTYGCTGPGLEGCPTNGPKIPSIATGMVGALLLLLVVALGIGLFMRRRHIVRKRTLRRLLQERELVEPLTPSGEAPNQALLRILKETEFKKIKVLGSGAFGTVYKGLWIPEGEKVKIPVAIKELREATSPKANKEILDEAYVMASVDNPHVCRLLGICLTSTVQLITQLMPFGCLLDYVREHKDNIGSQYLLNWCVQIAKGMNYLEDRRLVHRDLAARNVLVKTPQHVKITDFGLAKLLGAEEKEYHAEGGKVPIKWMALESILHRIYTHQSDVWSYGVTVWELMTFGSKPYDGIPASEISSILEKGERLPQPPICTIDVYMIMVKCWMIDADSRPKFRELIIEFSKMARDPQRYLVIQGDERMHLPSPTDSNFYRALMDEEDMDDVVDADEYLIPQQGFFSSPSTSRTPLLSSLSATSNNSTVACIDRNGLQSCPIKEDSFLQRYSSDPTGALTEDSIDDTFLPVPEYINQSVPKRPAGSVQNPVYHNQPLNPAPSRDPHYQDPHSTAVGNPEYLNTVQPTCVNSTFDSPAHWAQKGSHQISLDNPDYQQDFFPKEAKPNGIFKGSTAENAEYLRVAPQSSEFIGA

| SMILES | IC50 (MCF-7 cells) [µM] | IC50 (MDA-MB-231 cells [1]; [6]) [µM] | melting point [°C] | level of cytotoxic activity (Fig. 4) [3] | order of cytotoxic activity (SAR) [5] | other results |
| --- | --- | --- | --- | --- | --- | --- |
| NNC(=O)CNC(=O)Cn1nc(Cc2ccccc2)c2ccccc2c1=O [Compound 8a, 2-(4-benzyl-1-oxophthalazin-2(1H)-yl)-N-(2-hydrazineyl-2-oxoethyl) acetamide] | 31.2 ± 1.01 | 1.34 ± 0.13 | 202 to 204 | – | – | – |
| COC(=O)C(NC(=O)CNC(=O)Cn1nc(Cc2ccccc2)c2ccccc2c1=O)C(C)C (stereo not shown) [Compound 11d, methyl (2-(4-benzyl-1-oxophthalazin-2(1H)-yl)acetyl) glycyl valinate] | 2.1 ± 0.01 | 0.92 ± 0.01 | 190 to 192 | – | – | viability at 48 h, 100 µM [2]: 11%; IC50 (MCF-10A cells): 39.4 ± 1.8 µM; LogIC50 (Fig. 3 curve fit) (MDA-MB-231 cells [1]; [7]): -0.03564; IC50 (MDA-MB-231 cells [1]; [8]): 0.921 µM; inhibition at 10 µM (EGFR): 92.9 ± 2.08%; IC50 (EGFR): 79.6 ± 1.35 nM |
| O=C(Cn1nc(Cc2ccccc2)c2ccccc2c1=O)N1CCOCC1 [Compound 6h, 4-benzyl-2-(2-morpholino-2-oxoethyl) phthalazin-1(2H)-one] | 17.3 ± 0.31 | 21.3 ± 0.64 | 210 to 212 | Third level activity (Poor cytotoxicity) | – | – |
| Nc1cc(=O)[nH]n1C(=O)CNC(=O)Cn1nc(Cc2ccccc2)c2ccccc2c1=O [Compound 12d, N-(2-(5-amino-3-oxo-2,3-dihydro-1H-pyrazol-1-yl)-2-oxoethyl)-2-(4-benzyl-1-oxophthalazin-2(1H)-yl) acetamide] | 1.9 ± 0.01 | 0.57 ± 0.09 | – | First level activity (Potent cytotoxicity) | potent cytotoxicicty (IC50 ≤ 2.5 μM) | viability at 48 h, 100 µM [2]: 3%; IC50 (MCF-10A cells): 41.6 ± 1.8 µM; early apoptosis (Q4, AV+/PI−) (MDA-MB-231 cells [4]): 24.2%; late apoptosis (Q2, AV+/PI+) (MDA-MB-231 cells [4]): 18.3%; necrosis fold vs control (MDA-MB-231 cells [4]): 9.25 fold; total apoptosis fold vs control (MDA-MB-231 cells [4]): 64.4 fold; total apoptotic cell death (MDA-MB-231 cells [4]; control 0.66%): 42.5%; necrosis (Q1, AV−/PI+) (MDA-MB-231 cells [4]; control 0.67%): 6.2%; LogIC50 (Fig. 3 curve fit) (MDA-MB-231 cells [1]; [7]): -0.2373; IC50 (MDA-MB-231 cells [1]; [8]): 0.579 µM; cell growth inhibition at the highest concentration (MDA-MB-231 cells [1]; MDA-MB-231, highest concentration (range 100 µM to 0.01 µM), 48 h): 98.2%; inhibition at 10 µM (EGFR): 97.6 ± 2.49%; IC50 (EGFR): 21.4 ± 0.67 nM |
| C=CCNC(=O)Cn1nc(Cc2ccccc2)c2ccccc2c1=O [Compound 6f, 2-(4-benzyl-1-oxophthalazin-2(1H)-yl)-N-allyl acetamide] | 23.1 ± 0.94 | ≥ 50 | 164 to 166 | Third level activity (Poor cytotoxicity) | – | – |
| COC(=O)CNC(=O)CNC(=O)Cn1nc(Cc2ccccc2)c2ccccc2c1=O [Compound 11a, methyl (2-(4-benzyl-1-oxophthalazin-2(1H)-yl)acetyl) glycyl glycinate] | 11.3 ± 0.29 | 7.2 ± 0.3 | 162 to 164 | Second level activity (Moderate cytotoxicity) | moderate cytotoxicity (IC50 ≤ 20 μM) | – |
| C#Cc1cccc(Nc2ncnc3cc(OCCOC)c(OCCOC)cc23)c1 [Erlotinib, reference compound] | 1.32 ± 0.04 | – | – | – | – | IC50 (MCF-10A cells): 30.9 ± 1.8 µM; IC50 (MDA-MB-231 cells [1]; Homo sapiens, MDA-MB-231, 48 h, MTT, three independent trials, read-out: IC50 (μM) ± SD MDA-MB-231): 1 µM; IC50 (MDA-MB-231 cells [1]; MTT, 48 h, three independent trials, read-out: IC50 (μM) ± SD MDA-MB-231): 1.02 ± 0.1 µM |
| Cc1ccc(Nc2nnc(Cc3ccncc3)c3ccccc23)cc1Br [AAC789] | – | – | – | – | – | IC50 (VEGFR‐2): 20 nM |
| O=C(Cn1nc(Cc2ccccc2)c2ccccc2c1=O)N1CCCCC1 [Compound 6g, 4-benzyl-2-(2-oxo-2-(piperidin-1-yl)ethyl) phthalazin-1(2H)-one] | – | – | 192 to 194 | – | – | – |
| C/C(=N\NC(=O)CNC(=O)Cn1nc(Cc2ccccc2)c2ccccc2c1=O)c1ccco1 [Compound 12c, (E)-2-(4-benzyl-1-oxophthalazin-2(1H)-yl)-N-(2-(2-(1-(furan-2-yl)ethylidene) hydrazineyl)-2-oxoethyl) acetamide] | 1.4 ± 0.05 | 1.89 ± 0.04 | 209 to 210 | First level activity (Potent cytotoxicity) | potent cytotoxicicty (IC50 ≤ 2.5 μM) | viability at 48 h, 100 µM [2]: 9.6%; IC50 (MCF-10A cells): 43.6 ± 1.9 µM; LogIC50 (Fig. 3 curve fit) (MDA-MB-231 cells [1]; [7]): 0.2772; IC50 (MDA-MB-231 cells [1]; [8]): 1.89 µM; inhibition at 10 µM (EGFR): 96.2 ± 2.04%; IC50 (EGFR): 65.4 ± 1.12 nM |
| COC(=O)CNC(=O)Cn1nc(Cc2ccccc2)c2ccccc2c1=O [Compound 7a, methyl (2-(4-benzyl-1-oxophthalazin-2(1H)-yl)acetyl) glycinate] | ≥ 50 | 26.5 ± 0.79 | – | – | – | – |
| O=C(CNC(=O)Cn1nc(Cc2ccccc2)c2ccccc2c1=O)NCc1ccccc1 [Compound 10a, N-benzyl-2-(2-(4-benzyl-1-oxophthalazin-2(1H)-yl)acetamido) acetamide] | ≥ 50 | 6.4 ± 0.18 | 186 to 188 | – | – | – |
| O=C(Cn1nc(Cc2ccccc2)c2ccccc2c1=O)NCC(=O)N1CCOCC1 [Compound 10h, 2-(4-benzyl-1-oxophthalazin-2(1H)-yl)-N-(2-morpholino-2-oxoethyl) acetamide] | 16.4 ± 0.31 | 2.3 ± 0.1 | 148 to 150 | Second level activity (Moderate cytotoxicity) | moderate cytotoxicity (IC50 ≤ 20 μM) | – |
| C=CCNC(=O)CNC(=O)Cn1nc(Cc2ccccc2)c2ccccc2c1=O [Compound 10f, N-allyl-2-(2-(4-benzyl-1-oxophthalazin-2(1H)-yl)acetamido) acetamide] | 15.4 ± 0.28 | 8.6 ± 0.1 | 188 to 190 | Second level activity (Moderate cytotoxicity) | moderate cytotoxicity (IC50 ≤ 20 μM) | – |
| O=C(Cn1nc(Cc2ccccc2)c2ccccc2c1=O)NCc1ccccc1 [Compound 6a, 2-(4-benzyl-1-oxophthalazin-2(1H)-yl)-N-benzyl acetamide] | 18.6 ± 0.69 | 19.8 ± 0.74 | 174 to 176 | Third level activity (Poor cytotoxicity) | – | – |
